{"source": "ChEMBL document CHEMBL1126480", "about": "“Peptide azoles: A new class of biologically-active dipeptide mmetics” (Bioorg Med Chem Lett, 1993)", "data": [{"molecular_target": "T1, Substance-P receptor (Cavia porcellus, UniProt P30547)", "T1 sequence (P30547 whole entry)": "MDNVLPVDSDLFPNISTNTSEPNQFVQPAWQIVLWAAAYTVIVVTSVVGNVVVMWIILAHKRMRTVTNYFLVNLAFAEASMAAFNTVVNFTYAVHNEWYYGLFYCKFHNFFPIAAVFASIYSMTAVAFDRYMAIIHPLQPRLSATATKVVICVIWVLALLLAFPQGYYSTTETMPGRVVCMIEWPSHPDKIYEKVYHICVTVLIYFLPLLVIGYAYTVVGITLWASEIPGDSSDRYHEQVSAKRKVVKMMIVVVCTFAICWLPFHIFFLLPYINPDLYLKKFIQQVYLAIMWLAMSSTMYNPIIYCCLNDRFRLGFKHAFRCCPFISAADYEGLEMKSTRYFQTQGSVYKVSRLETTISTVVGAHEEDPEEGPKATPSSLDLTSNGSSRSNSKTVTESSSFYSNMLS", "assay": "The compound was evaluated in vitro for the antagonistic activity against Tachykinin receptor 1 in guinea pig myenteric plexus longitudinal muscle strips.", "format": "functional", "settings": "read-out: pA2 (converted)", "units": {"Kb": "nM"}, "values": [{"molecule": "CC(C)C[C@H](NC(=O)[C@@H](Cc1c[nH]c2ccccc12)NC(=O)[C@H](Cc1ccccc1)c1cnc([C@H](Cc2c[nH]c3ccccc23)NC(=O)[C@@H]2CCCN2)s1)C(=O)N[C@@H](Cc1ccccc1)C(N)=O", "Kb": 126}]}, {"molecular_target": "T1, Substance-P receptor", "assay": "The compound was evaluated in vitro for the antagonistic activity against substance P receptor in guinea pig myenteric plexus longitudinal muscle strips.", "format": "functional", "settings": "read-out: pA2 (converted)", "units": {"Kb": "nM"}, "values": [{"molecule": "CC(C)C[C@H](NC(=O)[C@@H](Cc1c[nH]c2ccccc12)NC(=O)[C@H](Cc1ccccc1)c1c[nH]c([C@@H](Cc2c[nH]c3ccccc23)NC(=O)[C@@H]2CCCN2)n1)C(=O)N[C@@H](Cc1ccccc1)C(N)=O", "Kb": 200}, {"molecule": "CC(C)C[C@H](NC(=O)[C@@H](Cc1c[nH]c2ccccc12)NC(=O)[C@H](Cc1ccccc1)c1cnc([C@@H](Cc2c[nH]c3ccccc23)NC(=O)[C@@H]2CCCN2)o1)C(=O)N[C@@H](Cc1ccccc1)C(N)=O", "Kb": 501}, {"molecule": "CC(C)C[C@H](NC(=O)[C@@H](Cc1c[nH]c2ccccc12)NC(=O)[C@H](Cc1ccccc1)c1cnc([C@@H](Cc2c[nH]c3ccccc23)NC(=O)[C@@H]2CCCN2)s1)C(=O)N[C@@H](Cc1ccccc1)C(N)=O", "Kb": 39.8}, {"molecule": "CC(C)C[C@H](NC(=O)[C@@H](Cc1c[nH]c2ccccc12)c1cnc(C(=O)[C@H](Cc2ccccc2)NC(=O)[C@@H](Cc2c[nH]c3ccccc23)NC(=O)[C@@H]2CCCN2)s1)C(=O)N[C@@H](Cc1ccccc1)C(N)=O", "Kb": 1260}, {"molecule": "H-PWFWLF-NH2", "Kb": 398}]}]}
